# A melting point compilation (Tetko et al.; mined from patent text by program, amines drawn as free bases though some values may be those of a salt)
row,Structure (SMILES),melting point [°C]
1,CN1Cc2c(-c3nc(CCl)cs3)ncn2-c2cccc(Cl)c2C1=O,277 to 279
2,Cc1ccc(S(=O)(=O)OCCC2COc3ccccc3O2)cc1 (stereo unspecified),82 to 83
3,CCc1cnc2c(NC(=O)c3c(Cl)cccc3Cl)cccc2c1CCO,180 to 182
4,N#Cc1ncc(Sc2ccccc2)nc1C#N,109 to 112
5,CCCCCCc1ccc(-c2ccc(C(=O)Oc3ccc(C(=O)O)c(Cl)c3)cc2)cc1,164 to 166
6,Cc1nc(C)c(-c2[nH]nc3c2C(=O)c2c(NC(=O)NN4CCOCC4)cccc2-3)s1,> 300
7,COC(=O)C=CC1C(C(=O)OC(C#N)c2cccc(Oc3ccccc3)c2)C1(C)C (stereo unspecified),98
8,CN1CCN(c2cc(Cl)cc3c2c(=O)n(-c2ccccc2)c(=O)n3Cc2ccccc2)CC1,111 to 119
9,COc1cc(OC)cc(N2CCN(C(=O)N(CC(=O)O)c3cc(C)c(C)cc3OC)CC2)c1,188 to 189
10,COc1cc(Cl)c(N)cc1-c1nc(C)c(-c2cccnc2)[nH]1,173 to 175
11,Cc1ccc(C(=O)CC(=O)C(F)F)cc1Cl,40 to 41
12,Nc1ccc(-c2nccc(-c3nc(-c4ccc(C(F)(F)F)cc4)cc(C(F)(F)F)n3)n2)cn1,236
13,O=[N+]([O-])c1cnc(-c2ccccc2)nc1Cl,160 to 161
14,Cc1c(C)c2c(c(C)c1O)CCC(C)(C#Cc1cccc(C(F)(F)F)c1)O2 (stereo unspecified),81 to 83
15,Cc1oc(-c2ccccc2)nc1COc1ccc(C(=O)c2ccccc2OCC(=O)O)cc1,174 to 175
16,CC(C)(C)c1cc(-n2nc3ccc(S(=O)c4ccccc4)cc3n2)c(O)c(C(C)(C)C)c1 (stereo unspecified),152 to 154
17,NS(=O)(=O)c1cccc(NC(=O)c2cnn3ccc(-c4ccc(C(F)(F)F)cc4)nc23)c1,318 to 320
18,CN(C)c1nc2sc3c(NCc4ccco4)ncnc3c2c2c1CCC2(C)C,89.3 to 91
19,FC(F)(F)/C(=C(\c1ccccc1)c1ccc(OCCN2CCCC2)cc1)c1ccccc1,84.5 to 86
20,CCOC(=O)C1(Sc2ccccc2[N+](=O)[O-])Cc2ccc(N(C)C)cc2NC1=O (stereo unspecified),174 to 176
21,COC(=O)CC(=O)c1nccn1C,142 to 143
22,Cc1cc(C)nc(NC(=O)NS(=O)(=O)c2ccccc2O)n1,180
23,CC(=O)c1c(-c2ccc(O)cc2)oc2ccc(O)cc12,243 to 251
24,COc1ccc(Cl)c(Oc2cnc(-c3ncccn3)nc2C=O)c1,211
25,C[C@@H](NC(=O)c1cnn(-c2ccc(Cl)cc2)c1C(C)(C)C)[C@](O)(Cn1cncn1)c1ccc(F)cc1F,191 to 192
26,CCOC(=O)c1c(CCc2ccc(O)cc2)oc2ccc(C#N)cc12,182 to 183
